One assay has as its system 22RV1. As to the kind of experiment: Cell proliferation assay (CellTiterGlo, 72 h), 22RV1. The class given is cell-based. The note with it: Homo sapiens, read-out: 22Rv1 ATP average IC50. The procedure:
All incubations were performed at 37° C. in a humidified carbon dioxide incubator.
(§1) The cells were seeded in a 96-well plate (white wall/transparent bottom) at 5000 cells/well and cultured overnight.
(§2) On day 2, A stock solution of the compound at a concentration of 10 mM was subjected to an 8-fold serial dilution to obtain 8 concentration points. 2 μL of the compound solution at each concentration point was added to 98 μL of fresh medium, and the mixture was mixed homogeneously. Then, 5 μL of the compound solution diluted in the medium at each concentration point was added to 100 μL of overnight medium containing the cells, and 2 replicates were set for each concentration. The mixture was cultured for 72 h.
(§3) After 72 h of compound treatment, the plate was equilibrated to room temperature, 100 μL of CellTiterGlo (Promega) was added. The mixture was mixed homogeneously for 2 min, left to stand at room temperature for 10 min, and then read for luminescence values on a SpectraMax M5 microplate reader to evaluate cell viability. The positive control was 1% Tween-20 and the negative control was 0.1% DMSO. IC50 was generated by 4-parameter non-linear regression fitting in GraphPad Prism.
A general note: Cellular ATP, detected with luciferase, serves as a proxy for viable cell number.

Another assay addresses BRD4 (Homo sapiens, UniProt O60885). As to the kind of experiment: BRD4 degradation assay (Western-blot / Simple Western) in 22RV1. The note with it: 22RV1 cells, target content as percentage of control (DMSO = 100%).
In another assay the test system is LNCaP. The assay can be described thus: Cell proliferation assay (CellTiterGlo, 72 h), LNCaP. The class given is cell-based. To be noted: Homo sapiens, LNCap cells, 72 h compound treatment, read-out: LNCap ATP average IC50. The protocol: The cell line used was 22RV1 or LNCaP, and the medium was RPMI-1640 containing 10% FBS and antibiotics. All incubations were performed at 37° C. in a humidified carbon dioxide incubator.
On day 1, cells were digested with 0.25% trypsin (containing EDTA) and collected by centrifugation.
as §1, §2, §3

[1] abbreviates: 22Rv1 cells, 72 h compound treatment, CellTiterGlo.

The text below walks through data of patent US20250109141A1, “BRD4 PROTEIN DEGRADER COMPOUND, AND PREPARATION METHOD AND USE THEREOF” (Miracure Biotechnology Limited, priority 2023, published 2025).

Molecules are shown by their SMILES. Read-outs that look alike come from different tables or passages of the source.

The IC50 is the concentration that gives 50% inhibition.

Turning to `Cc1sc2c(c1C)C(c1ccc(/C=C/CNO)cc1)=N[C@@H](CC(=O)OC(C)(C)C)c1nnc(C)n1-2` [Compound 9011], the IC50 with 22RV1 (setting [1]) and with LNCaP was less than 50 nM throughout. In addition, the “BRD4 degradation of 22RV1 (200 nM 5 h)” value on BRD4 is reported as “A (A<20%)”.

For the compound `CONC/C=C/c1ccc(C2=N[C@@H](CC(=O)OC(C)(C)C)c3nnc(C)n3-c3sc(C)c(C)c32)cc1` [Compound 9065], the IC50 with 22RV1 (setting [1]) and in the assay with LNCaP was less than 50 nM each time. For the same compound, the “BRD4 degradation of 22RV1 (200 nM 5 h)” value at BRD4 is given as “B (20%<B<50%)”.

Turning to `Cc1sc2c(c1C)C(c1ccc(-c3ccc(CN)o3)cc1)=N[C@@H](CC(=O)OC(C)(C)C)c1nnc(C)n1-2` [Compound 9071], the IC50 in the assay on 22RV1 (setting [1]) and with LNCaP was 50 to 200 nM each time. The “BRD4 degradation of 22RV1 (200 nM 5 h)” value on BRD4 is on record as “C (50%<C<80)”.

For the compound `COc1ccc2c(c1)C(c1ccc(/C=C/CNO)cc1)=N[C@@H](CC(=O)OC(C)(C)C)c1nnc(C)n1-2` [Compound 9077], the IC50 is less than 50 nM in the assay on 22RV1 (22Rv1, 72 h) and less than 50 nM in the assay with LNCaP. Further, on BRD4, the “BRD4 degradation of 22RV1 (200 nM 5 h)” value is “A (A<20%)”.

For `CONCC#Cc1ccc(C2=N[C@@H](CC(=O)OC(C)(C)C)c3nnc(C)n3-c3ccc(OC)cc32)cc1` [Compound 9078], the IC50 with 22RV1 (22Rv1, 72 h) was less than 50 nM; in the assay on LNCaP, less than 50 nM. In addition, the “BRD4 degradation of 22RV1 (200 nM 5 h)” value at BRD4 was “B (20%<B<50%)”.

`CONC/C=C/c1ccc(C2=N[C@@H](CC(=O)OC(C)(C)C)c3nnc(C)n3-c3ccc(OC)cc32)cc1` [Compound 9079]: the IC50 in the assay on 22RV1 (22Rv1, 72 h) was less than 50 nM; with LNCaP it was less than 50 nM. Moreover, on BRD4, the “BRD4 degradation of 22RV1 (200 nM 5 h)” value is listed as “A (A<20%)”.

Turning to `COc1ccc2c(c1)C(c1ccc(C#CCN)cc1)=N[C@@H](CC(=O)OC(C)(C)C)c1nnc(C)n1-2` [Compound 9080], the IC50 in the assay on 22RV1 (22Rv1, 72 h) was less than 50 nM; with LNCaP it was 50 to 200 nM. Besides, the “BRD4 degradation of 22RV1 (200 nM 5 h)” value at BRD4 is “B (20%<B<50%)”.

Turning to `Cc1sc2c(c1C)C(c1ccc(-c3ccc(N)cc3)cc1)=NC(CC(=O)OC(C)(C)C)c1nnc(C)n1-2` (centres unmarked) [Compound 9086], the IC50 in the assay on 22RV1 (setting [1]) and with LNCaP was 200 to 500 nM in each case.

As to `Cc1sc2c(c1C)C(c1ccc(-c3cccc(N)c3)cc1)=NC(CC(=O)OC(C)(C)C)c1nnc(C)n1-2` (centres unmarked) [Compound 9087], the values for the IC50 in the assay with 22RV1 (setting [1]) and in the assay with LNCaP were more than 500 nM and 200 to 500 nM, respectively.

As for `Cc1sc2c(c1C)C(c1ccc(N3CC(=NO)C3)cc1)=N[C@@H](CC(=O)OC(C)(C)C)c1nnc(C)n1-2` [Compound 9090], the IC50 is more than 500 nM in the assay with 22RV1 (setting [1]) and 50 to 200 nM with LNCaP.

On to `Cc1sc2c(c1C)C(c1ccc(C#CCN)cc1)=N[C@@H](CCOC(=O)C(C)(C)C)c1nnc(C)n1-2` [Compound 9091], for which the IC50 lay in the range of 50 to 200 nM in the assay with 22RV1 (22Rv1, 72 h) and 200 to 500 nM in the assay with LNCaP.

For `CC(=O)NOC/C=C/c1ccc(C2=N[C@@H](CC(=O)OC(C)(C)C)c3nnc(C)n3-c3sc(C)c(C)c32)cc1` [Compound 9094], the IC50 with 22RV1 (setting [1]) and in the assay on LNCaP was 50 to 200 nM in each case.

`Cc1noc2c1-c1ccccc1C(c1ccc(/C=C/CNO)cc1)=N[C@H]2CC(=O)OC(C)(C)C` [Compound 9095]: the IC50 with 22RV1 (setting [1]) and in the assay on LNCaP was 50 to 200 nM each time.

For `CONC/C=C/c1ccc(C2=N[C@@H](CC(=O)OC(C)(C)C)c3onc(C)c3-c3ccccc32)cc1` [Compound 9097], the IC50 in the assay on 22RV1 (setting [1]) and in the assay with LNCaP was more than 500 nM in each case.

With `Cc1noc2c1-c1ccccc1C(c1ccc(C#CCN)cc1)=N[C@H]2CC(=O)OC(C)(C)C` [Compound 9098], the IC50 in the assay with 22RV1 (setting [1]) and with LNCaP was more than 500 nM each time.

For `Cc1sc2c(c1C)C(c1ccc(C#CCN)cc1)=N[C@@H](CC(=O)OC1(C)CC1)c1nnc(C)n1-2` [Compound 9103], the half-maximal inhibitory concentration (IC50) in the assay with 22RV1 (22Rv1, 72 h) is less than 50 nM; with LNCaP it was less than 50 nM. In addition, the “BRD4 degradation of 22RV1 (200 nM 5 h)” value at BRD4 is “B (20%<B<50%)”.

In the case of `CNC(=O)C#Cc1ccc(C2=N[C@@H](CC(=O)OC(C)(C)C)c3nnc(C)n3-c3sc(C)c(C)c32)cc1` [Compound 9104], in the assay on 22RV1 (setting [1]), the IC50 was less than 50 nM. Also, the “BRD4 degradation of 22RV1 (200 nM 5 h)” value at BRD4 was “D (80%<D<100%)”.

For `CC(=O)N(O)C/C=C/c1ccc(C2=N[C@@H](CC(=O)OC(C)(C)C)c3nnc(C)n3-c3sc(C)c(C)c32)cc1` [Compound 9109], the IC50 lay in the range of 200 to 500 nM with 22RV1 (setting [1]) and 50 to 200 nM with LNCaP. Besides, on BRD4, the “BRD4 degradation of 22RV1 (200 nM 5 h)” value was “C (50%<C<80)”.

With `Cc1sc2c(c1C)C(c1ccc(/C=C/CNC(=N)N)cc1)=N[C@@H](CC(=O)OC(C)(C)C)c1nnc(C)n1-2` [Compound 9110], the IC50 with 22RV1 (setting [1]) and in the assay on LNCaP was more than 500 nM throughout.
